The text below walks through data of US20240124412A1, “IKAROS ZINC FINGER FAMILY DEGRADERS AND USES THEREOF” (Gilead Sciences, Inc., priority 2021, published 2024).

The target in one assay is T1, IKZF2 (Homo sapiens, UniProt Q96SW2+Q9UKS7).
T1 construct: expressed in transfected cells
Put plainly: HiBiT protein tagging assay, in vitro IKZF2 degradation (HEK293). The assay is classed as cell-based. To be noted: HEK293, 18-24 hr incubation, normalized to DMSO control; for Dmax: HEK293, HiBiT assay, read-out: IKZF2 Dmax (maximum degradation at the highest concentration tested); for DC50: HiBiT assay, read-out: IKZF2 EC50. The method, then:
(§1) In vitro degradation of IKZF1 and IKZF2 was measured using HiBiT protein tagging and detection technology (Promega).
(§2) HiBiT technology (Promega) was used to develop the quantitative assays to measure the cellular IKZFs level by tagging an 11 amino acid HiBit peptides VSGWRLFKKIS (SEQ ID NO:1) to the protein of interest. Reporter plasmids were generated by fusing a linker sequence (GSSGGSSG; SEQ ID NO:2) followed by the HiBiT tag at the C terminus of IKZF1 and IKZF2. The fusion fragments were subsequently cloned into pcDNA5 pcDNA™5/FRT/TO plasmids (Thermo Fisher, cat #V652020) downstream of the Tetracycline operator. The resulting plasmids were co-transfected with pOG44 Flp-Recombinase Expression Vector (Thermo Fisher, cat #V600520) into Flp-In™ T-REx HEK293 line (Thermo Fisher, cat #R78077) and a stable cell pool was selected by adding 100 μg/ml of Hygromycin (Thermo Fisher, cat #10687010). The reporter cell enabled Tet-On inducible reporter expression from a single copy of the integrated gene.
(§3) On Day 1, Cells were grown to ˜80% confluency in TC medium (DMEM Glutamax (Gibco10569), 10% Tet free FBS (Takara 631106), and PenStrep Glutamin (Gibco 10378)) in tissue culture flasks. Doxycycline was then added to a final concentration of 1 μg/ml to induce reporter expression at 37° C. overnight.
(§4) On Day 2, 125 nL of serially-diluted solution of testing compounds were dispensed into 384-well white solid assay plates via ECHO acoustic liquid handler. Cells were lifted by 0.25% Trypsin (Gibco 25200) then pelleted by centrifugation (Beckman Avanti J-E) at 500×g for 5 min. Cell pellets were resuspended in TC medium at the concentration of 3e5/mL and 25 μL of cell suspension were added into each well of compound-spotted plates. The plates were returned to a 37° C. incubator overnight (18-24 hr).
(§5) On Day 3, assay plates were removed from the TC incubator and 25 μL of Nano-Glo lytic detection system (Promega, cat #N3030) was added to each well. Plates were incubated at r.t. for 3 min with shaking, and luminescence was read using an Envision reader (Perkin Elmer).
(§6) All raw data was normalized to DMSO control (final concentration: 0.5%) wells as POC and plotted out for EC50 and Dmax (Maximum degradation at the highest concentration tested in the assay).

For a further assay, the target named is T2, IKZF1 (Homo sapiens, UniProt Q13422+Q96SW2).
T2 construct: expressed in transfected cells
T2 sequence (Q13422 whole entry): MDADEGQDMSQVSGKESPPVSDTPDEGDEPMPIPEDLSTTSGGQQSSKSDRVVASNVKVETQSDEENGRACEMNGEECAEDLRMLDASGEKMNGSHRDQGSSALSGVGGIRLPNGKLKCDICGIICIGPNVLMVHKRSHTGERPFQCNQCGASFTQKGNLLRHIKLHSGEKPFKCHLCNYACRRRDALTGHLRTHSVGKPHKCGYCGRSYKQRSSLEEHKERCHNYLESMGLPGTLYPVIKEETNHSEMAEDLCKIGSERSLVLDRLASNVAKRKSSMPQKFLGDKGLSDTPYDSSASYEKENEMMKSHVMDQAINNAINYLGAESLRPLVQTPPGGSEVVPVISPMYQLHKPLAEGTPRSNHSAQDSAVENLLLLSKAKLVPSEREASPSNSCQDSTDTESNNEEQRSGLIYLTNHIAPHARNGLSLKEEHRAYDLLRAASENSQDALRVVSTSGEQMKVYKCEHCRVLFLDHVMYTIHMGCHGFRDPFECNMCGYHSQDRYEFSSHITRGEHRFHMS
T2 sequence (Q96SW2 whole entry): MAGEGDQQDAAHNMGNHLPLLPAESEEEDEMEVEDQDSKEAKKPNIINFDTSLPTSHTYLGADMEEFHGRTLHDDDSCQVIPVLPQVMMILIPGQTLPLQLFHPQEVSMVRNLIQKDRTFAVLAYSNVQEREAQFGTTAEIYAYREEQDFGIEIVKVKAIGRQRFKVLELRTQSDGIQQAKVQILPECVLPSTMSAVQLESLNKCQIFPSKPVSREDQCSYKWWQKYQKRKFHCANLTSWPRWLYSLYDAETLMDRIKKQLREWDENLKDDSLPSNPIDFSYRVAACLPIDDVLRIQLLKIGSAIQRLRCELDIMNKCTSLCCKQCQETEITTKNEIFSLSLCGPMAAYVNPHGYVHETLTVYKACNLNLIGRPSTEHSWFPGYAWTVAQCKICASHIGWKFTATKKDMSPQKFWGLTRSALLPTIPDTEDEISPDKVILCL
T2 sequence (Q16531 whole entry partner): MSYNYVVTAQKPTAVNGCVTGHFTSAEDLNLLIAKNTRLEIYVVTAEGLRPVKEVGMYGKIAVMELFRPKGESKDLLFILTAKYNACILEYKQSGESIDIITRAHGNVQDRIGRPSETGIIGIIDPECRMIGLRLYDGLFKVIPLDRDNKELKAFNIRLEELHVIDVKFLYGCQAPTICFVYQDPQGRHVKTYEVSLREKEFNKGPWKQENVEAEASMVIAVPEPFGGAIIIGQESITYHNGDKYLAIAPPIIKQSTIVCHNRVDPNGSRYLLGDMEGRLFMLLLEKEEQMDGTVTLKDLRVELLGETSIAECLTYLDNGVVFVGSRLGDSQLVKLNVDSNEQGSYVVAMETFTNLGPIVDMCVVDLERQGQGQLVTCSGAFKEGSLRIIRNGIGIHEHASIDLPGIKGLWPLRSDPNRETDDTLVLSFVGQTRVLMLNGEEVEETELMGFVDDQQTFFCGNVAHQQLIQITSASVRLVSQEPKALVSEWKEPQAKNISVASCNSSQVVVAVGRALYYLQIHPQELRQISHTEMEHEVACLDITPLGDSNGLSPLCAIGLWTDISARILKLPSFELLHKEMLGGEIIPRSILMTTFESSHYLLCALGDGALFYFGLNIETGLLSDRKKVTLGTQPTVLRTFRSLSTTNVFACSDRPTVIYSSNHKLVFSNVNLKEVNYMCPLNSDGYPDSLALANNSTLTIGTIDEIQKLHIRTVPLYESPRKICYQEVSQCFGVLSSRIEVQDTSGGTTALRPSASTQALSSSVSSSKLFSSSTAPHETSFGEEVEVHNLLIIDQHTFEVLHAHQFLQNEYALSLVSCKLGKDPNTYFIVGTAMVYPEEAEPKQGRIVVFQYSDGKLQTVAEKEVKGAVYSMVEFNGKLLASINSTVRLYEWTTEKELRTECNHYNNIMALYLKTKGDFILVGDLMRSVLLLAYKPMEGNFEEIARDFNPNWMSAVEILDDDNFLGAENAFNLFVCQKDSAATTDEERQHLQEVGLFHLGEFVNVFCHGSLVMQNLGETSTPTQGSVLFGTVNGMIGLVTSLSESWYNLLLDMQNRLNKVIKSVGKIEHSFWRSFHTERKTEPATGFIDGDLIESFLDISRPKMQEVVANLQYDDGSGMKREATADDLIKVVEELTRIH
Put plainly: HiBiT protein tagging assay, in vitro IKZF1 degradation (HEK293). The assay is classed as cell-based. Conditions: HEK293, 18-24 hr incubation, normalized to DMSO control; for Dmax: read-out: IKZF1 Dmax (maximum degradation at the highest concentration tested); for DC50: read-out: IKZF1 EC50. The protocol:
as §1, §2, §3, §4, §5, §6
On the technique in general: With HiBiT, luminescence reflects the tagged protein that the partner subunit can reach.

Each structure is given as a SMILES string.

T1 sequence (Q9UKS7 1-500 isoform Q9UKS7-2): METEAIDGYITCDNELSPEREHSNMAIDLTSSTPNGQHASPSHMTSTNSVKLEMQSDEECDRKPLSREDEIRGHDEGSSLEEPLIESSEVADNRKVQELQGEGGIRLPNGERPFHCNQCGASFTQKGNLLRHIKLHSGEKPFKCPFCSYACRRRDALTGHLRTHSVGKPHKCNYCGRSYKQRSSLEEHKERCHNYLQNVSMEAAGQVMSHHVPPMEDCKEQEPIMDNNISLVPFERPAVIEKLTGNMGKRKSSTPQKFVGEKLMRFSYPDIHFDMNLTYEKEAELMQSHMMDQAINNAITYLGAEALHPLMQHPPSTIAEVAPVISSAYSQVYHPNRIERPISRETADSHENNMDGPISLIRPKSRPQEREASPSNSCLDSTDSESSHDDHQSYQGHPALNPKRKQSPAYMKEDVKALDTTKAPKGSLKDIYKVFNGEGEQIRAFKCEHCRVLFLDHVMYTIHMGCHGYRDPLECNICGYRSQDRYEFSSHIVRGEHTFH
T1 sequence (Q96SW2 whole entry): as the sequence (Q96SW2 whole entry) above
T1 sequence (Q16531 whole entry partner): as the sequence (Q16531 whole entry partner) above

In the case of `O=C1CCC(N2Cc3cc(CN[C@H]4CCCN(Cc5ccccc5)C4)ccc3C2=O)C(=O)N1` (stereo partly drawn) [Example 21, 3-(5-((((S)-1-benzylpiperidin-3-yl)amino)methyl)-1-oxoisoindolin-2-yl)piperidine-2,6-dione], the values for the Dmax at IKZF2 and on IKZF1 were 72% and 79%, respectively. Moreover, the DC50 was 261 nM at IKZF2 and 56 nM on IKZF1.

In the case of `O=C1CCC(N2Cc3cc(CNCC4CCCc5ccccc54)ccc3C2=O)C(=O)N1` (centres unmarked) [Example 22, 3-(1-oxo-5-((((1,2,3,4-tetrahydronaphthalen-1-yl)methyl)amino)methyl)isoindolin-2-yl)piperidine-2,6-dione], on IKZF2, the Dmax came to 36% and the DC50 came to 110 nM. Further, at IKZF1, the Dmax was found to be 78% and the DC50 worked out at 25 nM.

As to `O=C1CCC(N2Cc3cc(CNCC4CCc5ccccc5C4)ccc3C2=O)C(=O)N1` (centres unmarked) [Example 23, 3-(1-oxo-5-((((1,2,3,4-tetrahydronaphthalen-2-yl)methyl)amino)methyl)isoindolin-2-yl)piperidine-2,6-dione], on IKZF2, the Dmax amounted to 49% and the DC50 is 210 nM. Besides, on IKZF1, the Dmax stood at 86% and the DC50 was found to be 36 nM.

In the case of `O=C1CCC(N2Cc3cc(CN[C@@H]4CCCN(C(=O)c5ccccc5)C4)ccc3C2=O)C(=O)N1` (stereo partly drawn) [Example 24, 3-(5-((((R)-1-benzoylpiperidin-3-yl)amino)methyl)-1-oxoisoindolin-2-yl)piperidine-2,6-dione], at IKZF2, the Dmax stood at 62% and the DC50 was determined as 2000 nM. At IKZF1, the Dmax was 36% and the DC50 worked out at 871 nM.

In the case of `O=C1CCC(N2Cc3cc(CNC4Cc5ccccc5N(Cc5ccccc5)C4)ccc3C2=O)C(=O)N1` (centres unmarked) [Example 25, 3-(5-(((1-benzyl-1,2,3,4-tetrahydroquinolin-3-yl)amino)methyl)-1-oxoisoindolin-2-yl)piperidine-2,6-dione], the Dmax at IKZF2 came out at 39%; on IKZF1, 38%. In addition, the DC50 was determined as 1800 nM at IKZF2 and 84 nM at IKZF1.

With `O=C1CCC(N2Cc3cc(CN[C@@H]4CCCN(Cc5ccccc5Cl)C4)ccc3C2=O)C(=O)N1` (stereo partly drawn) [Example 26, 3-(5-((((R)-1-(2-chlorobenzyl)piperidin-3-yl)amino)methyl)-1-oxoisoindolin-2-yl)piperidine-2,6-dione], the Dmax on IKZF2 and on IKZF1 was 97% in each case. Also, the DC50 was 7 nM at IKZF2 and 1 nM at IKZF1.

On to `C[C@@H](c1ccccc1)N1CCC[C@@H](NCc2ccc3c(c2)CN(C2CCC(=O)NC2=O)C3=O)C1` (stereo partly drawn) [Example 27, 3-(1-oxo-5-((((R)-1-((S)-1-phenylethyl)piperidin-3-yl)amino)methyl)isoindolin-2-yl)piperidine-2,6-dione], for which the Dmax turned out to be 93% at IKZF2 and 94% on IKZF1. The results for the DC50 at IKZF2 and on IKZF1 were 41 nM and 9 nM, respectively.

As to `C[C@H](c1ccccc1)N1CCC[C@@H](NCc2ccc3c(c2)CN(C2CCC(=O)NC2=O)C3=O)C1` (stereo partly drawn) [Example 28, 3-(1-oxo-5-((((R)-1-((R)-1-phenylethyl)piperidin-3-yl)amino)methyl)isoindolin-2-yl)piperidine-2,6-dione], at IKZF2, the Dmax was found to be 93% and the DC50 worked out at 29 nM. For the same molecule, on IKZF1, the Dmax came out at 94% and the DC50 turned out to be 5 nM.

Regarding `O=C1CCC(N2Cc3cc(CN[C@@H]4CCCN(CCc5ccccc5)C4)ccc3C2=O)C(=O)N1` (stereo partly drawn) [Example 29, 3-(1-oxo-5-((((R)-1-phenethylpiperidin-3-yl)amino)methyl)isoindolin-2-yl)piperidine-2,6-dione], on IKZF2, the Dmax is 20% and the DC50 was 665 nM. Besides, on IKZF1, the Dmax is 58% and the DC50 was found to be 102 nM.

For the molecule `O=C1CCC(N2Cc3cc(CN[C@@H]4CCCN(c5ccccc5)C4)ccc3C2=O)C(=O)N1` (stereo partly drawn) [Example 30, 3-(1-oxo-5-((((R)-1-phenylpiperidin-3-yl)amino)methyl)isoindolin-2-yl)piperidine-2,6-dione], on IKZF2, the Dmax turned out to be 36% and the DC50 came out at 208 nM. In addition, at IKZF1, the Dmax is 44% and the DC50 came to 90 nM.

Take `O=C1CCC(N2Cc3cc(CN[C@H]4CC[C@@H](c5ccccc5)CC4)ccc3C2=O)C(=O)N1` (stereo partly drawn) [Example 31, 3-(1-oxo-5-((((1,4-cis)-4-phenylcyclohexyl)amino)methyl)isoindolin-2-yl)piperidine-2,6-dione]: the Dmax at IKZF2 worked out at 83%; on IKZF1 it was 97%. Besides, the DC50 at IKZF2 turned out to be 40 nM; on IKZF1 it was 3 nM.

As for `O=C1CCC(N2Cc3cc(CN[C@H]4CC[C@H](c5ccccc5)CC4)ccc3C2=O)C(=O)N1` (stereo partly drawn) [Example 32, 3-(1-oxo-5-((((1,4-trans)-4-phenylcyclohexyl)amino)methyl)isoindolin-2-yl)piperidine-2,6-dione], on IKZF2, the Dmax was 85% and the DC50 came to 71 nM. On IKZF1, the Dmax was 48% and the DC50 turned out to be 54 nM.

`O=C1CCC(N2Cc3cc(CNCc4ccccc4)ccc3C2=O)C(=O)N1` (centres unmarked) [Example 33, 3-(5-((benzylamino)methyl)-1-oxoisoindolin-2-yl)piperidine-2,6-dione]: the Dmax on IKZF2 turned out to be 27%; at IKZF1, 75%. The DC50 worked out at 264 nM on IKZF2 and 35 nM at IKZF1.

On to `O=C1CCC(N2Cc3cc(CN[C@@H]4CCCC[C@@H]4CO)ccc3C2=O)C(=O)N1` (stereo partly drawn) [Example 34, 3-(5-((((1R,2S)-2-(hydroxymethyl)cyclohexyl)amino)methyl)-1-oxoisoindolin-2-yl)piperidine-2,6-dione], for which, at IKZF2, the Dmax was 70% and the DC50 came to 657 nM. Moreover, on IKZF1, the Dmax was found to be 20% and the DC50 came out at 384 nM.

Regarding `O=C1CCC(N2Cc3cc(CNC4CCN(c5ccccn5)CC4)ccc3C2=O)C(=O)N1` (centres unmarked) [Example 35, 3-(1-oxo-5-(((1-(pyridin-2-yl)piperidin-4-yl)amino)methyl)isoindolin-2-yl)piperidine-2,6-dione], on IKZF2, the Dmax is 88% and the DC50 was 111 nM. At IKZF1, the Dmax was found to be 85% and the DC50 was 28 nM.

`O=C1CCC(N2Cc3cc(CNC4CCN(c5cccnc5)CC4)ccc3C2=O)C(=O)N1` (centres unmarked) [Example 36, 3-(1-oxo-5-(((1-(pyridin-3-yl)piperidin-4-yl)amino)methyl)isoindolin-2-yl)piperidine-2,6-dione]: on IKZF2, the Dmax worked out at 90% and the DC50 turned out to be 588 nM. In addition, on IKZF1, the Dmax is 84% and the DC50 is 96 nM.

On to `O=C1CCC(N2Cc3cc(CNC4CCN(c5ccncc5)CC4)ccc3C2=O)C(=O)N1` (centres unmarked) [Example 37, 3-(1-oxo-5-(((1-(pyridin-4-yl)piperidin-4-yl)amino)methyl)isoindolin-2-yl)piperidine-2,6-dione], for which the Dmax on IKZF2 stood at 76%; at IKZF1, 56%. The DC50 on IKZF2 was 1000 nM; on IKZF1, 667 nM.

For the molecule `O=C1CCC(N2Cc3cc(CN[C@H]4CCCC[C@@H]4O)ccc3C2=O)C(=O)N1` (stereo partly drawn) [Example 38, 3-(5-((((1S,2S)-2-hydroxycyclohexyl)amino)methyl)-1-oxoisoindolin-2-yl)piperidine-2,6-dione], the Dmax at IKZF2 came to 21%. The DC50 was 3300 nM at IKZF2 and more than 10000 nM at IKZF1.
